Data set [1] can be described thus: Approximate solubility in water at different pH values.

In brackets after ≈: the same amount, converted by molar mass.

The solubility is the concentration that dissolves in the medium under given conditions. Low values mean little dissolved substance, high ones much dissolved substance.

For the compound `CC[C@H]1OC(=O)[C@H](C)[C@@H](O[C@H]2C[C@@](C)(OC)[C@@H](O)[C@H](C)O2)[C@H](C)[C@@H](O[C@@H]2O[C@H](C)C[C@H](N(C)C)[C@H]2O)[C@](C)(OC)C[C@@H](C)C(=O)[C@H](C)[C@@H](O)[C@]1(C)O` [clarithromycin], the solubility in data set [1] (pH 1, simulated gastric fluid) was 26100 µg/mL (≈ 34.9 mM); in data set [1] (pH 4.5, aqueous buffer), 3900 µg/mL (≈ 5.21 mM); in data set [1] (pH 6, aqueous buffer), 3300 µg/mL (≈ 4.41 mM).

In the case of `CC[C@H]1OC(=O)[C@H](C)[C@@H](O[C@H]2C[C@@](C)(OC)[C@@H](O)[C@H](C)O2)[C@H](C)[C@@H](O[C@@H]2O[C@H](C)C[C@H](N(C)C)[C@H]2O)[C@](C)(O)C[C@](C)(F)C(=O)[C@H](C)[C@@H](O)[C@]1(C)O` [flurithromycin], the solubility in “physchem” (pH 1, simulated gastric fluid) was 22000 µg/mL (≈ 29.3 mM); in “physchem” (pH 2, simulated gastric fluid) it was 11800 µg/mL (≈ 15.7 mM); in the data set “physchem” (pH 4.5, aqueous buffer), 4200 µg/mL (≈ 5.59 mM); in “physchem” (pH 6, aqueous buffer) it was 300 µg/mL (≈ 0.399 mM).

Values taken from patent publication EP2283824B1, “Compositions and formulations based on swellable matrices for sustained release of poorly soluble drugs such as clarithromycin” (Special Product's Line S.p.A., priority 2009, dated 2011).
